We go through three compounds from patent US12448395B2 (BRISTOL-MYERS SQUIBB COMPANY, priority 2019, dated 2025).

Holding throughout (format): cell-based
For one assay, the target named is T1, human TLR9 (Homo sapiens, UniProt Q9NR96).
T1 sequence (Q9NR96 26-1032): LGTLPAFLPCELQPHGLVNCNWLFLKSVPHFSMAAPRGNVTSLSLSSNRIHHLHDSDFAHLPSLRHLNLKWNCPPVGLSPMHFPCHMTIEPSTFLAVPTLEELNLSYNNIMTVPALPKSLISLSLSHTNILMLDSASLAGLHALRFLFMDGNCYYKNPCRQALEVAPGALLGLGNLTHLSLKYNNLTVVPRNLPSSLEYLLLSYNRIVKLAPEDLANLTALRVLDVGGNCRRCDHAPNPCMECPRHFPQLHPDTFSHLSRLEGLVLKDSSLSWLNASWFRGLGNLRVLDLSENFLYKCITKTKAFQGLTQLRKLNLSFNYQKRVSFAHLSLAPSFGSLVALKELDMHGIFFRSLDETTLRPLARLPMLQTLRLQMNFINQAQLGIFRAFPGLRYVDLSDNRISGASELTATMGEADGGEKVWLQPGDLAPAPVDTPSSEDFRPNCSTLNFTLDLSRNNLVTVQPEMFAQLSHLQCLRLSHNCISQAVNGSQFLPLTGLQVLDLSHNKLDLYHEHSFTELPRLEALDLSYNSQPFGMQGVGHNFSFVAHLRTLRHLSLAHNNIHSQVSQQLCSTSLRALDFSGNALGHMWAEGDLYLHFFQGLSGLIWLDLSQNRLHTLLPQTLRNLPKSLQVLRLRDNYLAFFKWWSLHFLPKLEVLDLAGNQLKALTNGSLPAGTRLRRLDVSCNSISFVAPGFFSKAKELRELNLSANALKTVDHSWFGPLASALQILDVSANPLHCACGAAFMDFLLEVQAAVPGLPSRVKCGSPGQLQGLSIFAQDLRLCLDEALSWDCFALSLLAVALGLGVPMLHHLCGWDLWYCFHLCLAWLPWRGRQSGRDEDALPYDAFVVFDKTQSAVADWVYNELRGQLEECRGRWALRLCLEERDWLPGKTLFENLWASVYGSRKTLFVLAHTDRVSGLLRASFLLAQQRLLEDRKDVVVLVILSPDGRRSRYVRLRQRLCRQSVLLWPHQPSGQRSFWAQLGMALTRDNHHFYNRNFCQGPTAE
Nature of the assay: TLR9 inhibition reporter assay (HEK-Blue SEAP, ODN2006 stimulation). To be noted: HEK-Blue cells overexpressing human TLR9, ODN2006 5 nM. The procedure, abridged:
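Compound treatment: 30 min, RT, 0.05 nM–50 μM final. Agonist: TLR7 gardiquimod 7.5 μM; TLR8 R848 15.9 μM; TLR9 ODN2006 5 nM. Incubation 22 h, 37 °C, 5% CO2. Readout SEAP, HEK-Blue Detection.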

The target in another assay is T2, human TLR8 (Homo sapiens, UniProt Q9NR97).
T2 sequence (Q9NR97 27-1041): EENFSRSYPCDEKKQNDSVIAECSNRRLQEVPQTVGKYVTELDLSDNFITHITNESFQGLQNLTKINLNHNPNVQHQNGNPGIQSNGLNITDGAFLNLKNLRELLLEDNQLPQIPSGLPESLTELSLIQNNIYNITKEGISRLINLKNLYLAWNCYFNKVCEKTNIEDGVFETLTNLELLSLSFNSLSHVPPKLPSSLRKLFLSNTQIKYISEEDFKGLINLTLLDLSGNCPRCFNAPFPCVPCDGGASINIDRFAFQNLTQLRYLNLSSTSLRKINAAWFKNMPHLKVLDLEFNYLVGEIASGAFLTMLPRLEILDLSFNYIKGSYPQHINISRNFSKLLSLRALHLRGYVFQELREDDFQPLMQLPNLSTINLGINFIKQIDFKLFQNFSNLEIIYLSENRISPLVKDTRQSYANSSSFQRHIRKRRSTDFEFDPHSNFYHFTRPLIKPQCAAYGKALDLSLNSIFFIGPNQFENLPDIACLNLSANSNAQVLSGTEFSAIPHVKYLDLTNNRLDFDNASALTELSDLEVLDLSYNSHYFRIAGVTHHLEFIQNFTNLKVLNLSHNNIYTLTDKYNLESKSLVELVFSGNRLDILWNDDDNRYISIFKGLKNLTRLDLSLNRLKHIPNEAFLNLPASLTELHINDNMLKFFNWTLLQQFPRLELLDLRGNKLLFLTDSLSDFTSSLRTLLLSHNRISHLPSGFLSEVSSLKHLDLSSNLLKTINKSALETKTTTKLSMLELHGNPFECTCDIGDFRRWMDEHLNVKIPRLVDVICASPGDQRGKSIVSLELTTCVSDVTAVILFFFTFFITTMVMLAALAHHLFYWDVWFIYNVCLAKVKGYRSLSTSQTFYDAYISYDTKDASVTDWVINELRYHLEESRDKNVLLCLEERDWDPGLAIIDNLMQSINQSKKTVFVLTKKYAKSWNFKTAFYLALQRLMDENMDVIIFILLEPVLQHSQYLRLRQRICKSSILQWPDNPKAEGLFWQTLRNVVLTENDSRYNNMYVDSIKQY
Nature of the assay: TLR8 inhibition reporter assay (HEK-Blue SEAP, R848 stimulation). As to conditions: HEK-Blue cells overexpressing human TLR8, R848 15.9 μM. The procedure: (§1) TLR7/8/9 Inhibition Reporter Assays
(§2) HEK-Blue™-cells (Invivogen) overexpressing human TLR7, TLR8 or TLR9 receptors were used for screening inhibitors of these receptors using an inducible SEAP (secreted embryonic alkaline phosphatase) reporter gene under the control of the IFN-β minimal promoter fused to five NF-κB and AP-1-binding sites. Briefly, cells are seeded into Greiner 384 well plates (15000 cells per well for TLR7, 20,000 for TLR8 and 25,000 for TLR9) and then treated with test compounds in DMSO to yield a final dose response concentration range of 0.05 nM-50 μM. After a 30 minute compound pre-treatment at room temperature, the cells are then stimulated with a TLR7 ligand (gardiquimod at a final concentration of 7.5 μM), TLR8 ligand (R848 at a final concentration of 15.9 μM) or TLR9 ligand (ODN2006 at a final concentration of 5 nM) to activate NF-κB and AP-1 which induce the production of SEAP. After a 22 hour incubation at 37° C., 5% CO2, SEAP levels are determined with the addition of HEK-Blue™ Detection reagent (Invivogen), a cell culture medium that allows for detection of SEAP, according to manufacturer's specifications. The percent inhibition is determined as the % reduction in the HEK-Blue signal present in wells treated with agonist plus DMSO alone compared to wells treated with a known inhibitor.

Another assay concerns the target T3, human TLR7 (Homo sapiens, UniProt Q9NYK1).
T3 sequence (Q9NYK1 27-1049): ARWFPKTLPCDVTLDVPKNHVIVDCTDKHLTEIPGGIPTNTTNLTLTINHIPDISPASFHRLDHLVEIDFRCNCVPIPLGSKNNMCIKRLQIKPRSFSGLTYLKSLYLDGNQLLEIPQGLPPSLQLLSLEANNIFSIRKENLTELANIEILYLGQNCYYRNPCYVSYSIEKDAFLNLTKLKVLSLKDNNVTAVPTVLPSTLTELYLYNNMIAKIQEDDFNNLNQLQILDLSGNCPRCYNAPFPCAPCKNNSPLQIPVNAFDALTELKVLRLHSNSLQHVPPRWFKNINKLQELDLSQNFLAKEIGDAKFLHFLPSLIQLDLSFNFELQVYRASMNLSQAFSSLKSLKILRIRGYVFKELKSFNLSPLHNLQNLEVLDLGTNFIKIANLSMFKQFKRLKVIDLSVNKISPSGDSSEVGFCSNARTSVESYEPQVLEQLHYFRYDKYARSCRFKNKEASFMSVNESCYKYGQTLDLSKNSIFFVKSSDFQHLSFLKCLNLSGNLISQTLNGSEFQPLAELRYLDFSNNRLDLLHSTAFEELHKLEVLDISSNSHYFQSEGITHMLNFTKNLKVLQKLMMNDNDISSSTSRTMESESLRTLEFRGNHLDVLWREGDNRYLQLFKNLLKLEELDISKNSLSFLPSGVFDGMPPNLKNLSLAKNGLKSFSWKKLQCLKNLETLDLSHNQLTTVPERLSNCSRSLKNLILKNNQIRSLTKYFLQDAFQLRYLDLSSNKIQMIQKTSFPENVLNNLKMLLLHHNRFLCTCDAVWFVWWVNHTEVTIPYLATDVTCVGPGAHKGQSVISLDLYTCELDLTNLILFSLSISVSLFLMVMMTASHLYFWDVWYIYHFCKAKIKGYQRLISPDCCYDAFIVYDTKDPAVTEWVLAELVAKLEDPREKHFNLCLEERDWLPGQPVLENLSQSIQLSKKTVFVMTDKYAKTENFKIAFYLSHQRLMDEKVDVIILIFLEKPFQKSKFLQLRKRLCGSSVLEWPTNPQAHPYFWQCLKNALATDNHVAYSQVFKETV
Nature of the assay: TLR7 inhibition reporter assay (HEK-Blue SEAP, gardiquimod stimulation). As to conditions: HEK-Blue cells overexpressing human TLR7, gardiquimod 7.5 μM. The procedure: as §1, §2

Structures are written as SMILES. Where a name gives a salt, the structure may show the parent alone.

Consider `Cc1c(-c2[nH]c3sc(C4CCC(NCC(=O)N5CCOCC5)CC4)nc3c2C(C)C)cn2ncnc2c1C` (single isomer, unassigned) [Example 206, 2-((4-(5-(7,8-dimethyl-[1,2,4]triazolo[1,5-a]pyridin-6-yl)-6-isopropyl-4H-pyrrolo[3,2-d]thiazol-2-yl)cyclohexyl)amino)-1-morpholinoethan-1-one], for which the IC50 was determined as 12600 nM on human TLR9, 0.64 nM against human TLR8 and 2.27 nM at human TLR7.

On to `Cc1c(-c2[nH]c3sc(C4CCC(NCC(=O)N5CCOCC5)CC4)nc3c2C(C)C)cn2ncnc2c1C` (single isomer, unassigned) [Example 207, 2-((4-(5-(7,8-dimethyl-[1,2,4]triazolo[1,5-a]pyridin-6-yl)-6-isopropyl-4H-pyrrolo[3,2-d]thiazol-2-yl)cyclohexyl)amino)-1-morpholinoethan-1-one], for which the IC50 against human TLR9 stood at 20700 nM; on human TLR8 it was 0.31 nM; against human TLR7, 2.92 nM.

Turning to `Cc1c(-c2[nH]c3sc(N4CCNC[C@H]4C)nc3c2C(C)C)cn2ncnc2c1C` [Example 308, (R)-5-(7,8-dimethyl-[1,2,4]triazolo[1,5-a]pyridin-6-yl)-6-isopropyl-2-(2-methylpiperazin-1-yl)-4H-pyrrolo[3,2-d]thiazole, HCl], the half-inhibitory concentration (IC50) at human TLR9 was determined as 15800 nM; at human TLR8, 0.09 nM; against human TLR7, 0.18 nM.
